Measured values reported in article PMC8625065 (Molecules, 2021).
Marks after values point to notes of the source that are not given here.

Tests used:
poly(dAdT)2 = experiment: Thermal melting experiment; format: binding; conditions: poly(dAdT)2, r = 0.3, pH 7.0; error ±0.5 °C
Procedure: (§1) Compound solutions were used for measurements in aqueous buffer (pH = 7, sodium cacodylate buffer, I = 0.05 mol dm^−3). Polynucleotides were purchased as noted: poly A-poly U, poly (dAdT)2 and calf thymus (ct)DNA (Sigma-Aldrich). Polynucleotides were dissolved in Na-cacodylate buffer, I = 0.05 mol dm^−3, pH = 7. The calf thymus ctDNA was additionally sonicated and filtered through a […]. Polynucleotide concentration was determined spectroscopically as the concentration of phosphates. UV–Vis spectra were recorded on a Varian Cary 100 Bio spectrophotometer using 1cm path quartz cuvettes. Calibration experiments were performed at 25 °C and pH = 7 (I = 0.05 mol dm^−3, sodium cacodylate buffer). Thermal melting curves for DNA and their complexes with studied compounds were determined as previously described by following the absorption change at 260 nm as a function of temperature. The absorbance of the ligands was subtracted from every curve and the absorbance scale was normalized. Tm values are the midpoints of the transition curves determined from the maximum of the first derivative and checked graphically by the tangent method. The ΔTm values were calculated by subtracting the Tm of the free nucleic acid from the Tm of the complex. Every ΔTm value reported here was the average of at least two measurements. The error in ΔTm is ±0.5 °C.

poly A-poly U = experiment: Thermal melting experiment; format: binding; conditions: r = 0.3, pH 7.0, error ±0.5 °C
Procedure: as §1

[1] = test system: A549 (lung adenocarcinoma); experiment: MTT proliferation assay, 72 h; format: cell-based; conditions: Homo sapiens, A549 cells
Procedure: (§2) The cell lines HeLa (cervical carcinoma), SW620 (colorectal adenocarcinoma, metastatic), A549 (lung adenocarcinoma), HepG2 (hepatocellular carcinoma) and HFF (human foreskin fibroblasts) were cultured as monolayers and maintained in Dulbecco’s modified Eagle medium (DMEM), supplemented with 10% fetal bovine serum (FBS), 2mM L-glutamine, 100 U/mL penicillin and 100 μg/mL streptomycin in a humidified atmosphere with 5% CO2 at 37 °C.
(§3) Cells were seeded onto 96-well microtiter plates at a seeding density of 3000 cells/well for carcinoma cell lines, and 5000 cells/well for normal human fibroblasts. The next day, cells were treated with test agents at five different concentrations (0.01–100 µM) and further incubated for 72 h. […] Following 72 h incubation, the MTT assay was performed and measured absorbances were transformed into percentage of cell growth as described previously. Results were obtained from three independent experiments.

[2] = Solubility of stock solution in water; format: physicochemical; conditions: c = 2 × 10^−3 mol dm^−3
Description: Based upon the antiproliferative activity, several compounds from a series of novel amidine- and amidoxime-substituted heterocycles (5, 6, 8–11 and 20) were selected for the study with calf thymus DNA (ctDNA), alternating AT-DNA (poly (dAdT)2) and AU-RNA (poly A-poly U).

[3] = test system: SW620 (colorectal adenocarcinoma, metastatic); experiment: MTT proliferation assay, 72 h; format: cell-based, human
Procedure: as §2, §3

[4] = test system: HeLa (cervical carcinoma); experiment: MTT proliferation assay, 72 h; format: cell-based, human
Procedure: as §2, §3

[5] = test system: HepG2 (hepatocellular carcinoma); experiment: MTT proliferation assay, 72 h; format: cell-based, human; conditions: Homo sapiens; HepG2 cells, MTT, 72 h
Procedure: as §2, §3

ctDNA = experiment: Thermal melting experiment; format: binding, calf; conditions: r = [compound]/[polynucleotide] = 0.3, pH 7.0, error ±0.5 °C
Procedure: as §1

p(dAdT)2 (AT-DNA) = experiment: Fluorimetric titration, Scatchard processing; format: binding; conditions: p(dAdT)2, pH 7.0, sodium cacodylate buffer, I = 0.05 mol dm^-3
Procedure: (§4) Compound solutions were used for measurements in aqueous buffer (pH = 7, sodium cacodylate buffer, I = 0.05 mol dm^−3). Polynucleotides were purchased as noted: poly A-poly U, poly (dAdT)2 and calf thymus (ct)DNA (Sigma-Aldrich). Polynucleotides were dissolved in Na-cacodylate buffer, I = 0.05 mol dm^−3, pH = 7. The calf thymus ctDNA was additionally sonicated and filtered through a […]. Polynucleotide concentration was determined spectroscopically as the concentration of phosphates.
(§5) Fluorescence spectra were recorded on a Varian Cary Eclipse spectrophotometer at 25 °C using appropriate 1cm path quartz cuvettes. Fluorometric experiments were performed at pH = 7 (I = 0.05 mol dm^−3, sodium cacodylate buffer) by adding portions of polynucleotide solution into the solution of the studied compound. In fluorometric experiments, an excitation wavelength of λexc ≥ 300 nm was used to avoid the inner filter effect caused due to increasing absorbance of the polynucleotide. Emissions were determined in the range λem = 300–600 nm. Values for Ks obtained by processing titration data using the Scatchard equation [40], in most titrations have satisfactory correlation coefficients (≥0.98).

ctDNA (calf thymus DNA) = experiment: Fluorimetric titration, Scatchard processing; format: binding; conditions: pH 7.0, sodium cacodylate buffer, I = 0.05 mol dm^-3
Procedure: as §4, §5

poly A-poly U (AU-RNA) = experiment: Fluorimetric titration, Scatchard processing; format: binding; conditions: pH 7.0, sodium cacodylate buffer, I = 0.05 mol dm^-3
Procedure: as §4, §5

IC50 [1]: 31.4 µM
melting point: 238 to 241 °C
solubility in water [2]: small aggregation
IC50 ([3]; Homo sapiens, SW-620, SW620 cells, MTT, 72 h): 7.24 µM
IC50 ([4]; Homo sapiens, HeLa cells, MTT, 72 h): 7.15 µM
IC50 [5]: 51.3 µM
logKs (p(dAdT)2 (AT-DNA)): 4.7 ^d
logKs (poly A-poly U (AU-RNA)): 4.6 ^d
Compound: N/C(=N\O)c1ccc(-n2cc(COc3cccc4ccc(/C(N)=N/O)nc34)nn2)cc1 [Compound 20, (Z)-N′-Hydroxy-8-((1-(4-((Z)-N′-hydroxycarbamimidoyl)phenyl)-1H-1,2,3-triazol-4-yl)methoxy)quinoline-2-carboximidamide]
ΔTm (poly(dAdT)2): 0 °C
ΔTm (poly A-poly U): 0 °C
selectivity index (SI) on SW620 ([3]; HFF versus SW620 cells): > 14
selectivity index (SI) on HeLa ([4]; HFF versus HeLa cells): > 14
ΔTm (ctDNA): 0 °C
logKs (ctDNA (calf thymus DNA)): 4.3 ^d
